Experimental data reported in US20080242594A1, “Methods for Promoting Stem Cell Proliferation and Survival” (priority 2005, published 2008).

Legend:
Adult SVZ CNS SC = assay: Multi-potentiality of adult CNS stem cells after mitogen withdrawal; assay type: cell-based, rat; conditions: FGF2 20 ng/ml 7 days, mitogen withdrawal 7 days
Protocol: Very little protein or mRNA were detected outside the SVZ (FIG. 4g). Adult CNS stem cells can be cultured as a monolayer in vitro (FIG. 4h) and they show similar responses to extracellular signals that regulate stem cell differentiation upon withdrawal of the mitogen that sustains the undifferentiated state (Johe et al., Genes Dev 10:3129-40, 1996). To ask if Notch activation promotes survival in rat adult SVZ cultures, isolated cells were grown in the presence of FGF2 with and without Delta-4 for one week. […] When FGF2 was withdrawn for a week, cells at clonal density generated all three CNS lineages (FIG. 8C, Table 4).

[1] = test system: E13.5 cortical stem cells; assay: Differentiation potential of embryonic CNS stem cells after Notch ligand treatment; assay type: cell-based, mouse; conditions: 5 days treatment in bFGF2 20 ng/ml, then mitogen withdrawal (WD) 3 days
Protocol: To test whether Notch activation promoted differentiation or fate commitment, these cultures were treated with either Jagged-1 or Delta-4 for 5 days, […] The proportion of cells expressing genes characteristic of the stem or differentiated cells was determined (FIG. 8A).
The multipotentiality of treated cells was tested more rigorously by plating them at clonal density (50 cells/cm^2). Following five days of Delta-4+FGF2 treatment and 5 days of differentiation, 65% of the clones contained GFAP+, TUJ1+, and CNPase+ cells (FIG. 8B).

adult rats = assay: Intraventricular infusion in normal adult rats, BrdU labeled cells; assay type: in vivo, rat
Protocol: In-vivo Experiments: All drugs were infused over one week using an Alzet osmotic pump (model 2001 delivering at a rate of 1 μl/hr for seven days). Briefly, an intracerebral cannula connected to the pump was inserted into the right lateral ventricle using the following stereotaxic coordinates: bregma AP +0, Lateral −1.5 mm dorso-ventral 3.3 mm. Animals received IP injection of the tracer BrdU (50 mg/kg) every 12 hours for 5 days beginning on day one post-operatively to label dividing cells.
(§1) Immuno-positive cells were analyzed by confocal microscopy counted using a non-biased system on slides obtained from homologous coronal slices containing the infarct of each animal at the position between +0.2 and −3.8 mm from the center of the bregma according to stereotaxic coordinates. Cells were enumerated in […] regions of interest, on both the ipsilateral and contralateral hemispheres (to cannula, or cannula and ischemic focus): subventricular zone (SVZ), corpus callosum and white matter and the peri-infarct cortex.
The effect of intraventricular administration of Delta-4 was studied in adult rats. As in other tissues, the numbers of stem cells in the adult CNS are precisely controlled. […] In vivo manipulations were designed to ask if Notch ligands can act alone or substantially alter the effect of FGF2 on the numbers of proliferating cells in the SVZ of the normal brain. Animals (N=5-6 per treatment) were fitted with a mini-osmotic pump administering artificial cerebrospinal fluid (ACSF, vehicle), FGF2, Delta-4, or a combination FGF2+Delta-4 for one week into the ventricles of three-month old rats. Animals were also given twice-daily injections of bromodeoxyuridine (BrdU) from post-op days two to six to label cells generated during this time window. Two groups of animals were analyzed at day 7 and day 45 relative to the initiation of protein delivery. Delta-4 doses were chosen to provide a roughly equal concentration in the rat adult cerebrospinal fluid as in the cell culture medium of our in vitro experiments.

HSF6 hES cells = assay: hES single cell plating efficiency, HSF-6; assay type: cell-based, human; conditions: singly dissociated cells on MEFs, treated daily for one week
From the text: The human ES cell lines HSF-6 (University of California, San Francisco; NIH # UC06, Passage 38-120) and H1 and H9 (WiCell Research Institute, NIH # WA01 and […]) were maintained on mouse embryonic fibroblasts (MEF) according to the suppliers' protocols. Immunocytochemistry and FACS analysis for the expression of Oct4 and SSEA4 and SKY karyotyping established that the starting cells are undifferentiated and have a normal set of chromosomes. For single cell survival experiments, hES colonies were harvested after treatment with 1.5 mg/ml collagenase type IV (Invitrogen), separated from the MEF feeder cells by repeated washing by gravity, gently triturated to break up colonies into small aggregates, further dissociated into a single cell solution by trypsination (0.05% trypsin/0.04% EDTA) and transferred on MEF feeder cells at a density of 10000 cells/ml. Oct-4 positive colonies were counted six days after plating. […]
The pro-survival effects of activation of Notch and inhibition of JAK was tested on HSF-6 (NIH code UC06, http://escell.ucsf.edu), H1 (NIH code WA01, www.wicell.org) and H9 (NIH code WA09, www.wicell.org) hES cells. Singly dissociated hES cells were plated on mouse embryo fibroblasts (MEFs), treated daily for one week and colony numbers counted. […]

[2] = test system: spontaneously hypertensive rats (SHR) with permanent middle cerebral artery occlusion; assay: Focal ischemia (PMCAO) in rats with intraventricular infusion; assay type: in vivo, rat; conditions: stroked animals
Protocol: For the induction of focal ischemia in rats, male spontaneously hypertensive rats (SHR) underwent permanent middle cerebral artery occlusion (PMCAO) (Leker et al., Stroke 33:1085-92, 2002). This is a highly reproducible model of focal irreversible cerebral ischemia that results in isolated fronto-parietal cortical injury. For motor disability evaluations, animals were analyzed with a standard motor disability protocol (Leker et al., Stroke 34:2000-6, 2003).
as §1
There is growing evidence for an endogenous repair process following injury to the telencephalon. […]
Treatment with Notch ligand with or without FGF2 increased the number of cells that were BrdU labeled in the days immediately following the injury and these cells survived for an additional 5 weeks (FIG. 6d). […] The behavior of animals in the 45 day groups were assessed at the indicated time points.

FGF2: fibroblast growth factor FGF2 (233-FB) from R&D
% Glia (GFAP) (Adult SVZ CNS SC): 51.8 ± 10.3% | % Neurons (TUJ1) (Adult SVZ CNS SC): 43.3 ± 10.7% | % Oligodendrocytes (CNPase) (Adult SVZ CNS SC): 9.4 ± 2.6% | % Glia (GFAP) [1]: 49.53 ± 4.79% | % Neurons (TUJ1) [1]: 42.37 ± 6.85% | % Oligodendrocytes (CNPase) [1]: 9.12 ± 2.82% | number of proliferating cells / BrdU incorporation (adult rats; day 7, contralateral site): no significant effect over vehicle | number of BrdU labeled cells in SVZ, corpus callosum and cortex (adult rats; day 7, hemisphere ipsilateral to the cannula): increased the number of BrdU labeled cells | plating efficiency relative to FGF2 controls (HSF6 hES cells): 100%±15.35 | size of the injury [2]: 21.0%±3.5 % of hemisphere volume
